Patent publication US20110178396A1, “Nicotinamide Derivatives” (CRC FOR BIOMEDICAL IMAGING DEVELOPMENT LTD., priority 2008, published 2011)

Tested on: A375 human amelanotic melanoma tumour
Assay: Biodistribution in A375 melanoma tumour bearing mice
Type: in vivo, BALB/c nude mice
Conditions: for Organ distribution Intestine / Organ distribution Liver / Organ distribution Spleen / Organ distribution Stomach / Organ distribution Thyroid / Organ distribution Tumour: mean ± S.D.
Protocol: Animal experiments were performed in compliance with the NHMRC Australian Code of Practice for the care and use of animals for scientific purposes. Female C57BL/6J black and BALB/c nude albino mice of 5 weeks age were obtained from the Animal Resources Centre, Western Australia. B16F0 murine melanoma cells were originally obtained from European Collection of Cell Cultures (UK) and A375 human amelanotic melanoma cells were originally obtained from American Type Culture Collection (USA). Before transplantation, B16F0 and A375 melanoma cells were maintained as a monolayer in RPMI culture medium supplemented with 10% foetal calf serum and antibiotics and passaged with trypsinisation. Early passages were frozen and stored in liquid nitrogen. Cells were passaged to P=10 and then discarded. Frozen aliquots were grown in a monolayer culture to between 80-95% confluence and for transplantation were trypsinised and washed with Ca^2+ and Mg^2+ free phosphate buffered saline (PBS). For inoculation, B16F0 melanoma cells were resuspended in Ca^2+ and Mg^2+ free PBS at 3 or 5×10^6 viable cells per ml and 0.1 ml was subcutaneously injected at the left flank of 6-7 weeks old C57BL/6J mice. Eleven days later, tumours could be palpated in >98% of inoculated animals. A375 human melanoma cells were resuspended at 1×10^7 viablecells per ml and 0.1 ml was injected subcutaneously at the left flank of 6 weeks old BALB/c nude mice and 25-26 days later tumours could be palpated with ˜60% of inoculated animals developing tumours.
Eleven days (B16F0 melanoma) and 25 days (A375 human melanoma) after tumour transplantation, the [^18F]nicotinamides (0.5-1.5 MBq, 100 μl) and [^123I]nicotinamide (0.37-0.74 MBq, 100 μl) derivatives were injected intravenously via the tail vein into mice (15-18 g). Time points of 1, 3, 6, 24, 48, 72 h after injection were chosen for determining the distribution of each compound in various organs and tissues for the iodine-123 labelled compounds and between 15 min and 6 hours (e.g. 15 min, 30 min, 1 h, 2 h, 4 h or 6 h) were chosen for the ^18F-labelled compounds. At defined times post injection, groups of mice (n=5) were weighed, sacrificed by CO2 administration followed by cervical dislocation and dissected. Selected organs were weighed and their radioactivity measured with a γ-counter. The remaining activity in the carcass was also determined in order to obtain the total activity in the mouse at defined time points. The fraction of injected activity (% ID) in the organ was calculated by comparison with suitable dilutions of the injected dose. Then, the radioactivity concentration in the organ (% ID/g) was found by dividing the % ID for each organ by the weight of the organ.

[1] = A375 tumour bearing mice, 30 min
[2] = A375 tumour, BALB/c nude mice, 1 h, n = 5
[3] = A375 tumour, BALB/c nude mice, 1 h, mean ± SD, n = 5
[4] = A375 tumour, BALB/c nude mice, 6 h, n = 5
[5] = A375 tumour, BALB/c nude mice, 6 h, mean ± SD, n = 5
[6] = A375 tumour, BALB/c nude mice, 24 h, n = 5
[7] = A375 tumour, BALB/c nude mice, 24 h, mean ± SD, n = 5

CCN(CC)CCNC(=O)c1ccc(F)nc1 [[^18F]MEL2, 6-Fluoro-N-[2-(diethylamino)ethyl]nicotinamide]
uptake in tissue (tumour and eyes) (A375 amelanotic melanoma tumour bearing mice, three hour period): low uptake | uptake BLADDER [1]: 8.937 % ID/g | uptake BLOOD [1]: 1.323 % ID/g | uptake BONE [1]: 1.912 % ID/g | uptake BRAIN [1]: 1.831 % ID/g | uptake EYES [1]: 1.704 % ID/g | uptake GIT [1]: 3.432 % ID/g | uptake HEART [1]: 1.898 % ID/g | uptake KIDNEY [1]: 7.103 % ID/g | uptake LIVER [1]: 6.820 % ID/g | uptake LUNGS [1]: 2.836 % ID/g | uptake MUSCLE [1]: 2.125 % ID/g | uptake SKIN [1]: 2.521 % ID/g | uptake SPLEEN [1]: 4.093 % ID/g | uptake STOMACH [1]: 3.795 % ID/g | uptake THYROID [1]: 2.745 % ID/g | uptake TUMOUR [1]: 2.633 % ID/g | uptake URINE [1]: 609.148 % ID/g | uptake BLADDER (A375 tumour bearing mice, 1 h): 3.717 % ID/g | uptake BLOOD (A375 tumour bearing mice, 1 h): 0.480 % ID/g | uptake BONE (A375 tumour bearing mice, 1 h): 0.863 % ID/g | uptake BRAIN (A375 tumour bearing mice, 1 h): 0.822 % ID/g | uptake EYES (A375 tumour bearing mice, 1 h): 0.626 % ID/g | uptake GIT (A375 tumour bearing mice, 1 h): 1.564 % ID/g | uptake HEART (A375 tumour bearing mice, 1 h): 0.604 % ID/g | uptake KIDNEY (A375 tumour bearing mice, 1 h): 2.032 % ID/g | uptake LIVER (A375 tumour bearing mice, 1 h): 2.670 % ID/g | uptake LUNGS (A375 tumour bearing mice, 1 h): 0.939 % ID/g | uptake MUSCLE (A375 tumour bearing mice, 1 h): 0.865 % ID/g | uptake SKIN (A375 tumour bearing mice, 1 h): 1.265 % ID/g | uptake SPLEEN (A375 tumour bearing mice, 1 h): 1.351 % ID/g | uptake STOMACH (A375 tumour bearing mice, 1 h): 1.899 % ID/g | uptake THYROID (A375 tumour bearing mice, 1 h): 1.162 % ID/g | uptake TUMOUR (A375 tumour bearing mice, 1 h): 0.920 % ID/g | uptake URINE (A375 tumour bearing mice, 1 h): 185.427 % ID/g | uptake BLADDER (A375 tumour bearing mice, 2 h): 4.835 % ID/g | uptake BLOOD (A375 tumour bearing mice, 2 h): 0.171 % ID/g | uptake BONE (A375 tumour bearing mice, 2 h): 0.548 % ID/g | uptake BRAIN (A375 tumour bearing mice, 2 h): 0.224 % ID/g | uptake EYES (A375 tumour bearing mice, 2 h): 0.238 % ID/g | uptake GIT (A375 tumour bearing mice, 2 h): 0.580 % ID/g | uptake HEART (A375 tumour bearing mice, 2 h): 0.205 % ID/g | uptake KIDNEY (A375 tumour bearing mice, 2 h): 0.650 % ID/g | uptake LIVER (A375 tumour bearing mice, 2 h): 0.985 % ID/g | uptake LUNGS (A375 tumour bearing mice, 2 h): 0.324 % ID/g | uptake MUSCLE (A375 tumour bearing mice, 2 h): 0.280 % ID/g | uptake SKIN (A375 tumour bearing mice, 2 h): 0.290 % ID/g | uptake SPLEEN (A375 tumour bearing mice, 2 h): 0.434 % ID/g | uptake STOMACH (A375 tumour bearing mice, 2 h): 0.748 % ID/g | uptake THYROID (A375 tumour bearing mice, 2 h): 0.356 % ID/g | uptake TUMOUR (A375 tumour bearing mice, 2 h): 0.254 % ID/g | uptake URINE (A375 tumour bearing mice, 2 h): 97.912 % ID/g | uptake BLADDER (A375 tumour bearing mice, 3 h): 0.360 % ID/g | uptake BLOOD (A375 tumour bearing mice, 3 h): 0.054 % ID/g | uptake BONE (A375 tumour bearing mice, 3 h): 0.443 % ID/g | uptake BRAIN (A375 tumour bearing mice, 3 h): 0.073 % ID/g | uptake EYES (A375 tumour bearing mice, 3 h): 0.110 % ID/g | uptake GIT (A375 tumour bearing mice, 3 h): 0.227 % ID/g | uptake HEART (A375 tumour bearing mice, 3 h): 0.045 % ID/g | uptake KIDNEY (A375 tumour bearing mice, 3 h): 0.197 % ID/g | uptake LIVER (A375 tumour bearing mice, 3 h): 0.323 % ID/g | uptake LUNGS (A375 tumour bearing mice, 3 h): 0.099 % ID/g | uptake MUSCLE (A375 tumour bearing mice, 3 h): 0.108 % ID/g | uptake SKIN (A375 tumour bearing mice, 3 h): 0.169 % ID/g | uptake SPLEEN (A375 tumour bearing mice, 3 h): 0.103 % ID/g | uptake STOMACH (A375 tumour bearing mice, 3 h): 0.302 % ID/g | uptake THYROID (A375 tumour bearing mice, 3 h): 0.128 % ID/g | uptake TUMOUR (A375 tumour bearing mice, 3 h): 0.096 % ID/g | uptake URINE (A375 tumour bearing mice, 3 h): 37.842 % ID/g

CCN(CC)CCNC(=O)c1cncc(I)c1 [[^123I]11, N-(2-(diethylamino)ethyl)-5-iodonicotinamide]
tumour standardized uptake value (SUVt) (A375 tumour, BALB/c nude mice, 1 h): 0.7 ± 0.1 | Organ distribution Intestine [2]: 14 ± 2 % ID/organ | Organ distribution Liver [2]: 2.3 ± 0.2 % ID/organ | Organ distribution Spleen [2]: 0.16 ± 0.01 % ID/organ | Organ distribution Stomach [2]: 1.6 ± 0.2 % ID/organ | Organ distribution Thyroid [2]: 0.40 ± 0.07 % ID/organ | Organ distribution Tumour [2]: 0.40 ± 0.16 % ID/organ | Uptake Lung [3]: 1.56 ± 0.2 % ID/g | uptake BLOOD [3]: 1.4 ± 0.2 % ID/g | uptake BRAIN [3]: 0.14 ± 0.02 % ID/g | uptake HEART [3]: 0.8 ± 0.1 % ID/g | uptake KIDNEY [3]: 1.9 ± 0.3 % ID/g | uptake LIVER [3]: 2.2 ± 0.4 % ID/g | uptake TUMOUR [3]: 1.2 ± 0.2 % ID/g | tumour standardized uptake value (SUVt) (A375 tumour, BALB/c nude mice, 6 h): 0.9 ± 0.2 | Organ distribution Intestine [4]: 2 ± 1 % ID/organ | Organ distribution Liver [4]: 0.7 ± 0.2 % ID/organ | Organ distribution Spleen [4]: 0.03 ± 0.01 % ID/organ | Organ distribution Stomach [4]: 0.4 ± 0.1 % ID/organ | Organ distribution Thyroid [4]: 1.0 ± 0.5 % ID/organ | Organ distribution Tumour [4]: 0.13 ± 0.06 % ID/organ | Uptake Lung [5]: 0.4 ± 0.2 % ID/g | uptake BLOOD [5]: 0.5 ± 0.2 % ID/g | uptake BRAIN [5]: 0.03 ± 0.01 % ID/g | uptake HEART [5]: 0.18 ± 0.07 % ID/g | uptake KIDNEY [5]: 0.47 ± 0.17 % ID/g | uptake LIVER [5]: 0.7 ± 0.3 % ID/g | uptake TUMOUR [5]: 0.4 ± 0.1 % ID/g | tumour standardized uptake value (SUVt) (A375 tumour, BALB/c nude mice, 24 h): 0.3 ± 0.1 | Organ distribution Intestine [6]: 0.04 ± 0.01 % ID/organ | Organ distribution Liver [6]: 0.09 ± 0.02 % ID/organ | Organ distribution Spleen [6]: 0.002 % ID/organ | Organ distribution Stomach [6]: 0.01 ± 0.00 % ID/organ | Organ distribution Thyroid [6]: 1.4 ± 0.8 % ID/organ | Organ distribution Tumour [6]: 0.001 % ID/organ | Uptake Lung [7]: 0.015 ± 0.004 % ID/g | uptake BLOOD [7]: 0.013 ± 0.002 % ID/g | uptake BRAIN [7]: 0.002 ± 0.001 % ID/g | uptake HEART [7]: 0.012 ± 0.003 % ID/g | uptake KIDNEY [7]: 0.013 ± 0.002 % ID/g | uptake LIVER [7]: 0.08 ± 0.02 % ID/g | uptake TUMOUR [7]: 0.007 ± 0.002 % ID/g
